{"source": "patent US11214586B2", "about": "“Rhodamine triplet state complex and preparation and photodynamic therapy (PDT) study thereof” (SOUTHERN UNIVERSITY OF SCIENCE AND TECHNOLOGY, priority 2018, dated 2022)", "key": {"4T1": {"tested_on": "4T1", "test": "Selective uptake by flow cytometry", "format": "cell-based, mouse", "conditions": "4T1, 5 μM, 2 h incubation", "experimental": "Tumor cells (MCF-7/A 549/HepG2/4T1) and normal cells (MCF-10A/293T/L02/NIH-3T3) (1×10^4 cells) was cultured in six-well plate for 12 h. and then Cells were changed with a medium containing 5 μM complexes (rho-bpy, rho-bpy-Pt-ph, rho-bpy-Rh-ppy, rho-bpy-Re and rho-bpy-Ir-ppy). Cells were washed three times with PBS after 2 h of incubation, Then the cells were harvested, and the fluorescence intensity of complexes were recorded by flow cytometer."}, "MCF-7 tumor-bearing mice": {"tested_on": "MCF-7 tumor-bearing mice", "test": "In vivo NIRF imaging, biodistribution and tumor accumulation", "experimental": "The procedures were approved by the Animal Care and Use Committee (Shenzhen Institutes of Advanced Technology, Chinese Academy of Sciences). Four-8-week-old female BALB/c mice or nude mice (Vital River Laboratory Animal Technology Co. Ltd., China) were subcutaneously injected with MCF-7 cells (1×10^6) in the flank region.\nThe Maestro GNIR Flex imaging system and analysis with software from CRi was used to image tumor-bearing animals over time following i.v. treatment with Ir-Rho (200 μM, 150 μl). At each time point, the mouse was imaged at 600 nm excitation and 650 nm emission. At 24 h post injection, tumors and major organs were excised for ex vivo NIRF imaging to determine the tissue distribution of Ir-Rho. All main organs were cut with similar thickness and imaged at 600 nm excitation and 650 nm emission. The average fluorescence intensity of organs was from a region of interest (ROI) placed over the area of the organs on the image."}, "[1]": {"test": "Octanol-water partition coefficient"}, "MCF-7 cells [2]": {"tested_on": "MCF-7 cells", "test": "Intracellular ROS, DCFH-DA assay", "format": "cell-based, human", "conditions": "5 μM, 11-W lamp for 30 min", "experimental": "The MCF-7 cells were seeded in eight-well chambered coverglasses (lab-Tek, Nunc, USA) and six-well plate, incubated for 24 h in 5% CO2 at 37° C. Next, added to compounds (bpy-Rho and M-Rho) in medium make the final concentrations of 5 μM compounds. After irradiation treatment (11 W lamp 30 min), cells were promptly washed with PBS and incubated with 4 μg/ml 2′7′-dichloro-fluoreseindiacetate (DCFH-DA) for 30 min, and intracellular ROS generation was evaluated by flow cytometry and confocal microscopy."}, "[3]": {"test": "Nanosecond transient absorption difference spectroscopy", "format": "physicochemical", "conditions": "measured by transient absorption in CH3CN", "source_text": "Nanosecond transient absorption (TA) difference spectroscopy was employed to investigate the triplet excited states of M-Rho (FIG. 2c and FIGS. 16-19). Upon pulsed laser excitation at 355 nm, an intense bleaching signal at 575 nm with lifetime in microsecond range is observed, which is ascribed to the depletion of ground state rhodamine absorption. Such a long-lived excited state should be localized on the rhodamine unit, and is assigned as the ^3IL excited state of rhodamine in M-Rho. The absorption signal at 610-800 nm is due to the rhodamine ^3IL excited state absorption. In contrast, no signal from this triplet excited state is detected in bpy-Rho because of the lack of efficient ISC. On the other hand, only the transient absorption signals originating from the corresponding ^3MLCT excited states are observed in the rhodamine-free analogues (FIGS. 20-21).\n(§1) The UV-vis absorption spectra were taken on Cary 60 UV-vis spectrophotometer. Steady-state emission spectra at room temperature were recorded on an Edinburgh Instruments FLS980 fluorescence spectrometer. Quartz cuvettes (path length=1 cm) were used in all spectrophotometric and fluorometric measurements. NMR spectra were recorded on a Bruker AVANCE 400 (^1H NMR for 400 MHz and ^13C NMR for 100 MHz) Fourier transform NMR spectrometer with chemical shifts reported relative to tetramethylsilane, (CH3)4Si. High-resolution MS spectra were performed on an Orbitrap Fusion Tribrid mass spectrometer. Elemental analyses of the newly synthesized complexes were preformed on a Elementar Vario EL Cube elemental analyzer at Sun Yat-sen University. The nanosecond time-resolved transient-difference absorption spectra were detected by using Edinburgh LP920 instruments (Edinburgh Instruments, U.K.). All solutions for transient absorption studies were degassed on a high-vacuum line in a two-compartment cell consisting of a 10-ml Pyrex bulb and a 1-cm or 4-mm path length quartz cuvette and sealed from the atmosphere by a Bibby Rotaflo HP6 Teflon stopper. The solutions were rigorously degassed with at least four successive freeze-pump-thaw cycles. Emission lifetime measurements were performed using a conventional laser system. The excitation source used was a 355-nm output (third harmonic) of a Spectra-Physics Quanta-Ray Q-switched GCR-150-10 pulsed Nd-YAG laser. Luminescence decay signals were detected by a Hamamatsu R928 PMT and recorded on a Tektronix Model TDS-620A (500 MHz, 2 GS/s) digital oscilloscope and analyzed using a program for exponential fits. Absolute quantum yields were measured by HAMAMATSU-C11347."}, "[4]": {"test": "UV/Vis absorption spectra", "format": "physicochemical", "experimental": "as §1"}, "MCF-7 cells [5]": {"tested_on": "MCF-7 cells", "test": "Phototoxicity, CCK-8 assay and calcein-AM/PI staining", "format": "cell-based, human", "conditions": "11-W lamp", "experimental": "• 1. MCF-7 cells were seeded at 8×10^3-1×10^4 cells/well in 96 well plates then incubated for 24 h in 5% CO2 at 37° C. The stock solutions of the complexes(10 mM in DMSO) were diluted to appropriate concentrations with the complete medium and added to the cells to give final complexes concentrations (1, 2, 5, 10 μM). After incubation for 2 h, the well plate were irradiated with 11 W lamp 30 min. To achieve more uniform irradiation, the entire well plate was gently orbited on the shaker. After the irradiation, the cells were again incubated for 2 h, after which the cytotoxicity was determined by CCK8 assay and expressed as a percent of the controls (cells exposed to light in the absence of the complexes). • 2. The MCF-7 cells(500 cells/well) were seeded in eight-well chambered coverglasses (lab-Tek, Nunc, USA), and then incubated for 24 h in 5% CO2 at 37° C. Next, added to complexes(rho-bpy, rho-bpy-Pt-ph, rho-bpy-Rh-ppy, rho-bpy-Re and rho-bpy-Ir-ppy) in medium make the final concentrations of 5 μM complexes. After incubation for 2 h, the eight-well plate were irradiated with 11 W lamp 30 min. The flowing, fixed with 4% paraformaldehyde solution. After staining with calcein-AM and (Propidium iodide) PI, Leica TCS SP5 confocal laser scanning microscope (GER) was used to observe the viable and dead cells."}, "[6]": {"test": "Singlet oxygen emission at about 1270 nm", "format": "physicochemical", "conditions": "in CH3CN", "experimental": "Singlet oxygen emission was detected by using FLS-980 spectrofluorometer. All of the compounds were dissolved in CH3CN. The absorbance at 532 nm was adjusted to be around 1.7 for all the compounds. Upon measurements, an 850 nm long-pass filter was inserted in between the sample and the detector to avoid many high-order diffraction from the visible emission."}, "[7]": {"conditions": "ex vivo NIRF, 24 h post-injection"}}}
{"smiles": "CCN(CC)c1ccc2c(-c3ccnc(-c4cc(C)ccn4)c3)c3ccc(=[N+](CC)CC)cc-3oc2c1.F[P-](F)(F)(F)(F)F.F[P-](F)(F)(F)(F)F.c1ccc(-c2cccc[c]2[Ir+][c]2ccccc2-c2ccccn2)nc1", "note": "[Ir-Rho]", "values": [{"measurement": "contrast index (CI)", "setting": "4T1", "value": "higher than 2.5"}, {"measurement": "liver uptake", "setting": "MCF-7 tumor-bearing mice; [7]", "value": "relatively low liver uptake"}, {"measurement": "tumor accumulation", "setting": "MCF-7 tumor-bearing mice; [7]", "value": "good tumor accumulation"}, {"measurement": "time of peak tumor uptake", "setting": "MCF-7 tumor-bearing mice; i.v. injection via the tail vein, 200 μM, 150 μl", "value": 24, "unit": "h"}, {"measurement": "log Po/w", "setting": "[1]", "value": "−0.39"}, {"measurement": "intracellular ROS generation", "setting": "MCF-7 cells [2]", "value": "highest ROS generation ability"}, {"measurement": "TT (triplet-state lifetimes)", "setting": "[3]", "value": 0.82, "unit": "μs"}, {"measurement": "λabs", "setting": "[4]; absorption maximum, in CH3CN", "value": 575, "unit": "nm"}, {"measurement": "ε × 10^4", "setting": "[4]; molar extinction coefficient at the absorption maxima, values × 10^4", "value": 8.75, "unit": "M^−1 cm^−1"}, {"measurement": "cell death upon irradiation", "setting": "MCF-7 cells [5]; concentration of 10 μM", "value": "Significant cell death"}, {"measurement": "PDT performance, ranking", "setting": "MCF-7 cells [5]; among M-Rho", "value": "best PDT performance"}, {"measurement": "1O2 emission at about 1270 nm", "setting": "[6]", "value": "Remarkable"}]}
